≈ marks a conversion by molar mass, not a printed value.
Legend:
[1] = Antiinvasive activity against mouse 26-L5 cells by transwell migration assay; format: functional, cell-based
[2] = Cytotoxicity against mouse 26-L5 cells upto 10 ug/ml; format: cell-based
[3] = Antiinvasive activity against mouse 26-L5 cells at 1 ug/ml by transwell migration assay; format: functional

IC50 [1] | IC50 ([1]; Mus musculus, read-out: IC50) [µg/mL] | Compound | Activity [2] | inhibition at 1 µg/mL [3] [%]
Not Active | – | COc1ccc(C(=O)OC[C@H]2O[C@H](O[C@H]3O[C@H](COC(=O)c4ccc(OC)cc4)[C@@H](O)[C@H](O)[C@H]3O)[C@H](O)[C@@H](O)[C@@H]2O)cc1 | Non-toxic | –
– | 1 (≈ 1.64 µM) | COc1ccccc1C(=O)OC[C@H]1O[C@H](O[C@H]2O[C@H](COC(=O)c3ccccc3OC)[C@@H](O)[C@H](O)[C@H]2O)[C@H](O)[C@@H](O)[C@@H]1O | Non-toxic | –
Not Active | – | COc1cc(C(=O)OC[C@H]2O[C@H](O[C@H]3O[C@H](COC(=O)c4ccc(F)c(OC)c4)[C@@H](O)[C@H](O)[C@H]3O)[C@H](O)[C@@H](O)[C@@H]2O)ccc1F | Non-toxic | –
– | 1 (≈ 1.72 µM) | O=C(OC[C@H]1O[C@H](O[C@H]2O[C@H](COC(=O)c3ccc(O)cc3)[C@@H](O)[C@H](O)[C@H]2O)[C@H](O)[C@@H](O)[C@@H]1O)c1ccc(O)cc1 | Non-toxic | –
Not Active | – | Cc1ccccc1C(=O)OC[C@H]1O[C@H](O[C@H]2O[C@H](COC(=O)c3ccccc3C)[C@@H](O)[C@H](O)[C@H]2O)[C@H](O)[C@@H](O)[C@@H]1O | Non-toxic | –
– | 0.25 (≈ 0.389 µM) | Cc1cc(O)cc(O)c1C(=O)OC[C@H]1O[C@H](O[C@H]2O[C@H](COC(=O)c3c(C)cc(O)cc3O)[C@@H](O)[C@H](O)[C@H]2O)[C@H](O)[C@@H](O)[C@@H]1O [BRARTEMICIN] | Non-toxic | –
– | 1 (≈ 1.5 µM) | CCNc1cccc(C)c1C(=O)OC[C@H]1O[C@H](O[C@H]2O[C@H](COC(=O)c3c(C)cccc3NCC)[C@@H](O)[C@H](O)[C@H]2O)[C@H](O)[C@@H](O)[C@@H]1O | Non-toxic | –
– | < 1 | O=C(OC[C@H]1O[C@H](O[C@H]2O[C@H](COC(=O)c3ccccc3O)[C@@H](O)[C@H](O)[C@H]2O)[C@H](O)[C@@H](O)[C@@H]1O)c1ccccc1O | Non-toxic | 35
Not Active | – | COc1cc(C(=O)OC[C@H]2O[C@H](O[C@H]3O[C@H](COC(=O)c4cc(OC)c(OC)c(OC)c4)[C@@H](O)[C@H](O)[C@H]3O)[C@H](O)[C@@H](O)[C@@H]2O)cc(OC)c1OC | Non-toxic | –
– | 0.1 (≈ 0.149 µM) | COc1cccc(C(=O)OC[C@H]2O[C@H](O[C@H]3O[C@H](COC(=O)c4cccc(OC)c4OC)[C@@H](O)[C@H](O)[C@H]3O)[C@H](O)[C@@H](O)[C@@H]2O)c1OC | Non-toxic | –
– | 1 (≈ 1.61 µM) | O=C(OC[C@H]1O[C@H](O[C@H]2O[C@H](COC(=O)c3c(F)cccc3F)[C@@H](O)[C@H](O)[C@H]2O)[C@H](O)[C@@H](O)[C@@H]1O)c1c(F)cccc1F | Non-toxic | –
– | < 1 | O=C(OC[C@H]1O[C@H](O[C@H]2O[C@H](COC(=O)c3cccc(O)c3O)[C@@H](O)[C@H](O)[C@H]2O)[C@H](O)[C@@H](O)[C@@H]1O)c1cccc(O)c1O | Non-toxic | 40
